In patent US5843941A, “Ras farnesyl transferase inhibitors” (Genentech, Inc., priority 1994, dated 1998):
Like-named read-outs stand apart in the source and are kept apart here.

Tests used:
[1] = test system: farnesylated proteins F1, F2 and F3 in Met18b-2 cells; assay: Inhibition of intracellular farnesylation in intact Met18b-2 cells, Triton-soluble proteins F1, F2, F3; type: cell-based, Chinese hamster; settings: Cricetulus griseus, read-out: EC 90% "B isomer"
From the text: To study farnesylation in intact cells we used Met18b-2 cells, a line of Chinese hamster ovary (CHO) cells that takes up [3H]mevalonate efficiently (see Faust, J., and Krieger, M. J. Biol. Chem. 262, 1966 (1987)) owing to the production of a mevalonate transport protein (see Kim, C. M., Goldstein, J. L., Brown, M. S. J. Biol. Chem. 267, 23113 (1992)). The [3H]mevalonate is converted by the cells into [3H]farnesyl pyrophosphate and [3H]geranylgeranyl pyrophosphate, which are then attached to proteins (Kim, C. M., Goldstein, J. L., Brown, M. S. J. Biol. Chem. 267, 23113 (1992)). In the assay, stock cultures of Met18b-2 cells were seeded at a density of 3-105 cells per 60 mm dish in 3 ml of medium A (Dulbecco's modified Eagle medium/Ham's F12 medium (1:1, v/v) containing 100 U/ml penicillin and 100 μg/ml streptomycin) supplemented with 5% (v/v) fetal calf serum (FCS). On day 3, each monolayer was refed with 1 ml medium A supplemented with 1% FCS (dialyzed against 0.15 M NaCl). At this point the cells were treated with 100 μM compactin (see Brown, M. S., Faust, J. R., Goldstein, J. L., Kaneko, I., and Endo, A. J. Biol. Chem. 253, 1121 (1978)) which blocks the synthesis of unlabeled mevalonate within the cells. Each compound was dissolved at 25 mM in DMSO/10 mM DTT immediately before use and 10 μl of this solution added directly. After 2 hr incubation at 37° C., each monolayer received 100 μCi [3H]mevalonate (60 Ci/mmol, American Radiolabeled Chemicals, Inc.) added in 100 μl of the medium A, and the incubation continued for 4 hr. The cells were harvested by rinsing three times with 3 ml of 50 mM Tris-HCl/0.15 M NaCl (pH 7.5). 300 μl of lysis buffer (0.5X Dulbecco's phosphate-buffered saline containing 1% Triton X-100, 5 μg/ml leupeptin, 5 μg/ml pepstatin, 0.5 mM phenylmethylsulfonyl fluoride, and 0.05 U/ml aprotinin) was added to each monolayer. After incubation on ice for 5 mon, the lysates were centrifuged 30 sec in a microfuge at 12,000 g. The resulting supernatant was tranferred to a new tube, and each pellet was resuspended in 60 μl of lysis buffer. Protein concentrations were determined using the BCA protein assay reagent (Pierce) according to the manufacturer's instructions. Detergent-soluble (supernatant) and -insoluble (pellet) samples were mixed with 2X SDS sample buffer (see Laemmli, U. K. Nature 227, 680 (1970)) and heated at 95° C. for 5 min before electrophoresis. Each lane contained 90 μg protein, and was run on a 12.5% SDS-polyacrylamide gel. The gel was dried, treated with ENTENSIFY (NEN-DuPont), and exposed to Kodak XOMAT-AR film for 9 h at -80° C. to allow visualization of all prenylated proteins. Migration of [14C]methylated molecular weight standards (Amersham) were used as markers.
The results of this assay are shown in FIG. 3, using a final concentration of 250 μM for each inhibitor. […] As shown in the figure, none of the control peptides or control benzodiazepine-peptideomimetics altered the prenylation of proteins in intact cells.
Using the same cells and procedures followed above for Example 125, we measured the dose dependence upon the inhibition of farnesylation in intact cells. […] Compound 37B inhibited the famesylation of F1-3 detectably at 10 μM, and almost completely at 25 μM.
In this manner, it is possible to obtain data regarding the comparative potency of these inhibitors upon the level of intracellular farnesylation. We have chosen to report the EC90% values for these inhibitors as the concentration required for a reduction in the Triton- soluble labelling (denoted F-1, F-2, and F-3) to 90% of control cells (untreated).

[2] = target: CAAX farnesyltransferase (Rattus norvegicus, UniProt Q02293+Q04631); assay: In vitro inhibition of CAAX farnesyltransferase; type: biochemical; set-up: purified to homogeneity from rat brain homogenates; from tissue; host or cells: rat brain; alternatively recombinant enzyme from a baculovirus expression system; settings: Table D
Chain of CAAX farnesyltransferase (Q02293 whole entry, one chain of several): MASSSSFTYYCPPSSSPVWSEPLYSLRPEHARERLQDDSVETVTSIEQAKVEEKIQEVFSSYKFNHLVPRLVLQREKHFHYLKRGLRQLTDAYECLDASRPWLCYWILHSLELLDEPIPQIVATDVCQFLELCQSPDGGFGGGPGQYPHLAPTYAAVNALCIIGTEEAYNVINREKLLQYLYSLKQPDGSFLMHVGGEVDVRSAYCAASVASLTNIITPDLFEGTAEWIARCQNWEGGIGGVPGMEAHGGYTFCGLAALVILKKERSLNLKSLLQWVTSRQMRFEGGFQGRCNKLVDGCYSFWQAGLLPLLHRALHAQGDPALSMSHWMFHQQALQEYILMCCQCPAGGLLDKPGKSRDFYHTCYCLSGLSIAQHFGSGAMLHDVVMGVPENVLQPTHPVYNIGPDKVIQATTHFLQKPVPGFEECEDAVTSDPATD
Procedure, shortened: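 Native or recombinant (baculovirus-infected cells, Q-Sepharose purified) farnesyltransferase incubated 30 min at 37 °C. [3H]farnesyl transfer to p21H-ras measured by SDS/trichloroacetic acid precipitation, nitrocellulose filtration and scintillation counting.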

[3] = diastereomer A, read-out: EC50 (μM) "A"
[4] = diastereomer B, read-out: EC50 (μM) "B"

Structure (SMILES) | EC90 [1] [µM] | EC50 [2, 3] [µM] | EC50 [2, 4] [µM] | EC50 ([2]; EC50 (μM) "B", diastereomer B) [µM] | EC50 ([2]; EC50 (μM) "A", diastereomer A) [µM]
COC(=O)[C@H](CCSC)NC(=O)CN1C(=O)C(N(C)C(=O)[C@@H](N)CSSC(C)(C)C)N=C(c2ccccc2)c2ccccc21 (stereo partly drawn) [compound 110, N-[[3-[(2-amino-3-tert-butylthiomercapto-1-oxopropyl)methylamino]-2,3-dihydro-2-oxo-5-phenyl-1H-1,4-benzodiazepin-1-yl]acetyl]-L-methionine methyl ester] | 10 | > 1.5 | > 1.5 | – | –
CSCC[C@H](NC(=O)CN1C(=O)C(N(C)C(=O)[C@@H](N)CSSC(C)(C)C)N=C(c2ccccc2)c2cc(Cl)ccc21)C(=O)OC1CCCCC1 (stereo partly drawn) [compound 111, N-[[3-[(2-amino-3-tert-butylthiomercapto-1-oxopropyl)methylamino]-2,3-dihydro-2-oxo-5-phenyl-7-chloro-1H-1,4-benzodiazepin-1-yl]acetyl]-L-methionine cyclohexyl ester] | 2 | > 3 | 1.4 | – | –
CSCC[C@H](NC(=O)CN1C(=O)C(N(C)C(=O)[C@@H](N)CSSC(C)(C)C)N=C(c2ccccc2)c2ccccc21)C(=O)OC1CCCCC1 (stereo partly drawn) [compound 112, N-[[3-[(2-amino-3-tert-butylthiomercapto-1-oxopropyl)methylamino]-2,3-dihydro-2-oxo-5-phenyl-1H-1,4-benzodiazepin-1-yl]acetyl]-L-methionine cyclohexyl ester] | 4 | – | 0.2 | – | –
CC(C)C[C@H](NC(=O)CN1C(=O)C(N(C)C(=O)[C@@H](N)CSSC(C)(C)C)N=C(c2ccccc2)c2cc(Cl)ccc21)c1nnn[nH]1 (stereo partly drawn) [compound 114, N-[[3-[(2-amino-3-tert-butylthiomercapto-1-oxopropyl)methylamino]-2,3-dihydro-2-oxo-5-phenyl-7-chloro-1H-1,4-benzodiazepin-4-yl]acetyl]-L-leucine tetrazole] | 30 | – | 0.12 | – | –
CN(C(=O)[C@@H](N)CSSC(C)(C)C)C1N=C(c2ccccc2)c2cc(Cl)ccc2N(CC(=O)N[C@@H](Cc2ccccc2)C(N)=O)C1=O (stereo partly drawn) [compound 115, N-[[3-[(2-amino-3-tert-butylthiomercapto-1-oxopropyl)methylamino]-2,3-dihydro-2-oxo-5-phenyl-7-chloro-1H-1,4-benzazepin-1-yl]acetyl]-L-phenylalanine amide] | 50 | > 3 | 0.1 | – | –
CSCC[C@H](NC(=O)CN1C(=O)C(N(C)C(=O)[C@@H](N)CSSC(C)(C)C)N=C(c2ccccc2)c2cc(Cl)ccc21)c1nnn[nH]1 (stereo partly drawn) [compound 116, N-[[3-[(2-amino-3-tert-butylthiomercapto-1-oxopropyl)methylamino]-2,3-dihydro-2-oxo-5-phenyl-7-chloro-1H-1,4-benzodiazepin-1-yl]acetyl]-L-methionine tetrazole] | 60 | > 3 | 0.03 | – | –
CN(C(=O)[C@@H](N)CSSC(C)(C)C)C1N=C(c2ccccc2)c2ccccc2N(CC(=O)N[C@@H](Cc2ccccc2)C(=O)OC2CCCCC2)C1=O (stereo partly drawn) [compound 117, N-[[3-[(2-amino-3-tert-butylthiomercapto-1-oxopropyl)methylamino]-2,3-dihydro-2-oxo-5-phenyl-1H-1,4-benzodiazepin-1-yl]acetyl]-L-phenylalanine cyclohexyl ester] | 3 | – | – | 1.6 | –
CN(C(=O)[C@@H](N)CSSC(C)(C)C)C1N=C(c2ccccc2)c2cc(Cl)ccc2N(CC(=O)N[C@@H](Cc2ccccc2)c2nnn[nH]2)C1=O (stereo partly drawn) [compound 119, N-[[3-[(2-amino-3-tert-butylthiomercapto-1-oxopropyl)methylamino]-2,3-dihydro-2-oxo-5-phenyl-7-chloro-1H-1,4-benzodiazepin-1-yl]acetyl]-L-phenylalanine tetrazole] | 30 | > 3 | 0.017 | – | –
CN(C(=O)[C@@H](N)CSSC(C)(C)C)C1N=C(c2ccccc2)c2cc(Cl)ccc2N(CC(=O)N[C@@H](Cc2ccccc2)C(=O)OC2CCCCC2)C1=O (stereo partly drawn) [compound 120, N-[[3-[(2-amino-3-tert-butylthiomercapto-1-oxopropyl)methylamino]-2,3-dihydro-2-oxo-5-phenyl-7-chloro-1H-1,4-benzodiazepin-1-yl]acetyl]-L-phenylalanine cyclohexyl ester] | 5 | – | – | > 3 | > 3
